# Measurements as given in patent US10722501B2 (BAYER AKTIENGESELLSCHAFT, priority 2016, dated 2020).
# pIC50: −log10 of the molar value.
# Target: T1, recombinant full-length human prolyl endopeptidase (PREP) (Homo sapiens, UniProt P48147)
# T1 construct: To recombinant full-length human prolyl endopeptidase (PREP, R&D-Systems, 4308-SE); purchased R&D-Systems 4308-SE
# T1 sequence (P48147 1-710): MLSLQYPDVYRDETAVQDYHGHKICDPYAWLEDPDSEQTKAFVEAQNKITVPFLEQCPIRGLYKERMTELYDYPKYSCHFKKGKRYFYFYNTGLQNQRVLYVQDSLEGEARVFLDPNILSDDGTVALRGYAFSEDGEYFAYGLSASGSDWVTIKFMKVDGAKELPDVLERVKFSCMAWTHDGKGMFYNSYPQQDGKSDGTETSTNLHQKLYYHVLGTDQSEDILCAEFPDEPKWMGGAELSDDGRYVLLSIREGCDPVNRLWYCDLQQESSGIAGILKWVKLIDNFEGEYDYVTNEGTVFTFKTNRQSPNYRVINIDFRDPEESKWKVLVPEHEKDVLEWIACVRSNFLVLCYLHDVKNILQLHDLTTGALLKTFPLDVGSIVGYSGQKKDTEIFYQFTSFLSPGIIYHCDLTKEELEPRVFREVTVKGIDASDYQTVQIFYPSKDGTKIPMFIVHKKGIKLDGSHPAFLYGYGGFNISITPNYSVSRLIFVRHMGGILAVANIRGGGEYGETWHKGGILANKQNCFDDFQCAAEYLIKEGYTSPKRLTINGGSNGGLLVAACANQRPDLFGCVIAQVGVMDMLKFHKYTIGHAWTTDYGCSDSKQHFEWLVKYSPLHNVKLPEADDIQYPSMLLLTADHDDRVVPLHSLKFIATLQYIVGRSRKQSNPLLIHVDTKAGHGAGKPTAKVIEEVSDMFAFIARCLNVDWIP
# Assay: Biochemical human prolyl endopeptidase (PREP) assay with fluorescently labelled substrate
# Conditions: substrate Z-Gly-Pro-AMC 50 μM, 32° C., 60 min; some as mean values from multiple independent determinations
# Procedure, shortened: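 Initial rates of fluorescence increase from 50 μM Z-Gly-Pro-AMC cleavage (ex 360/em 465 nm, 60 min, 32° C) give percent PREP activity versus no-compound control, and IC50 is interpolated. Enzyme used at 0.4 nM (final, example) in Tris pH 7.5 with EDTA, GSH, BSA and Brij-35; compounds span 1 nM to 30 μM.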
row,SMILES,pIC50
1,"CC1Cc2nn(Cc3ccc(C(F)(F)F)nc3)c(=O)n2C(C(=O)N2CC(O)C2)C1 (single isomer, unassigned) [Example 135, (5RS,7RS)-5-[(3-Hydroxyazetidin-1-yl)carbonyl]-7-methyl-2-{[6-(trifluoromethyl)pyridin-3-yl]methyl}-5,6,7,8-tetrahydro[1,2,4]triazolo[4,3-a]pyridin-3(2H)-one]",7.46
2,"CC1Cc2nn(Cc3ccc(C(F)(F)F)nc3)c(=O)n2C(C(=O)N2CC[C@H](F)C2)C1 (single isomer, unassigned) [Example 137]",6.89
3,"CC1Cc2nn(Cc3ccc(C(F)(F)F)nc3)c(=O)n2C(C(=O)N2CC[C@H](F)C2)C1 (single isomer, unassigned) [Example 138]",9.00
4,"Cc1ccc(Cn2nc3n(c2=O)C(C(=O)N2CCCC2)C(C)CC3)cc1 (single isomer, unassigned) [Example 139, (5RS,6RS)-6-Methyl-2-(4-methylbenzyl)-5-(pyrrolidin-1-ylcarbonyl)-5,6,7,8-tetrahydro[1,2,4]triazolo[4,3-a]pyridin-3(2H)-one]",9.06
5,"Cc1ccc(Cn2nc3n(c2=O)C(C(=O)N2CCS(=O)(=O)C2)CCC3)cc1 (single isomer, unassigned) [Example 142, (5RS)-5-[(1,1-Dioxido-1,3-thiazolidin-3-yl)carbonyl]-2-(4-methylbenzyl)-5,6,7,8-tetrahydro[1,2,4]triazolo[4,3-a]pyridin-3(2H)-one]",8.59
6,"O=C(C1CCc2nn(Cc3ccnc(C(F)(F)F)c3F)c(=O)n21)N1C[C@@H](F)[C@@H](F)C1 (single isomer, unassigned) [Example 176]",6.35
7,"O=C(C1CCc2nn(Cc3ccnc(C(F)(F)F)c3F)c(=O)n21)N1C[C@@H](F)[C@@H](F)C1 (single isomer, unassigned) [Example 177]",8.16
8,"O=C(C1CCc2nn(Cc3ccnc(C(F)(F)F)c3F)c(=O)n21)N1CC[C@H](F)C1 (single isomer, unassigned) [Example 179]",6.22
9,"O=C(C1CCc2nn(Cc3ccnc(C(F)(F)F)c3F)c(=O)n21)N1CC[C@H](F)C1 (single isomer, unassigned) [Example 180]",8.49
10,"O=C([C@@H]1CCCc2nn(CC3CCC(C(F)(F)F)CC3)c(=O)n21)N1CCCC1 (single isomer, unassigned) [Example 185]",9.43
11,"O=C([C@@H]1CCCc2nn(CC3CCC(C(F)(F)F)CC3)c(=O)n21)N1CCCC1 (single isomer, unassigned) [Example 186]",8.90
12,"Cc1ccc(Cn2nc3n(c2=O)[C@H](C(=O)N2CCC4CC42)CCC3)cc1 (single isomer, unassigned) [Example 188]",10.04
13,"Cc1ccc(Cn2nc3n(c2=O)[C@H](C(=O)N2CCC4CC42)CCC3)cc1 (single isomer, unassigned) [Example 189]",7.47
14,"Cc1ccc(Cn2nc3n(c2=O)[C@H](C(=O)N2CC[S+]([O-])C2)CCC3)cc1 (single isomer, unassigned) [Example 193]",9.38
15,"Cc1ccc(Cn2nc3n(c2=O)[C@H](C(=O)N2CC[S+]([O-])C2)CCC3)cc1 (single isomer, unassigned) [Example 194]",9.43
16,"O=C([C@@H]1CCCc2nn(Cc3ccc(Cl)nc3)c(=O)n21)N1CCC2CC21 (single isomer, unassigned) [Example 197]",6.63

row,SMILES,pIC50
1,"O=C([C@@H]1CCCc2nn(Cc3ccc(Cl)nc3)c(=O)n21)N1CCC2CC21 (single isomer, unassigned) [Example 198]",8.99
2,"O=C([C@@H]1CCCc2nn(Cc3ccc(C(F)(F)F)nc3)c(=O)n21)N1CCC2CC21 (single isomer, unassigned) [Example 200]",6.34
3,"O=C([C@@H]1CCCc2nn(Cc3ccc(C(F)(F)F)nc3)c(=O)n21)N1CCC2CC21 (single isomer, unassigned) [Example 201]",8.26
4,"O=C([C@@H]1CCCc2nn(Cc3ccc(F)c(Cl)c3)c(=O)n21)N1CCC2CC21 (single isomer, unassigned) [Example 202]",7.72
5,"O=C([C@@H]1CCCc2nn(Cc3ccc(F)c(Cl)c3)c(=O)n21)N1CCC2CC21 (single isomer, unassigned) [Example 203]",9.09
6,"CC(c1ccc(C(F)(F)F)nc1)n1nc2n(c1=O)[C@H](C(=O)N1CC[C@H](F)C1)CCC2 (single isomer, unassigned) [Example 216]",9.25
7,"CC(c1ccc(C(F)(F)F)nc1)n1nc2n(c1=O)[C@H](C(=O)N1CC[C@H](F)C1)CCC2 (single isomer, unassigned) [Example 217]",8.92
8,"CC(c1ccc(C(F)(F)F)nc1)n1nc2n(c1=O)[C@H](C(=O)N1C[C@@H](F)[C@@H](F)C1)CCC2 (single isomer, unassigned) [Example 218]",8.48
9,"CC(c1ccc(C(F)(F)F)nc1)n1nc2n(c1=O)[C@H](C(=O)N1C[C@@H](F)[C@@H](F)C1)CCC2 (single isomer, unassigned) [Example 219]",8.14
10,"CC1CCC(C(=O)N2CC[C@H](F)C2)n2c1nn(Cc1ccc(C(F)(F)F)nc1)c2=O (single isomer, unassigned) [Example 221]",6.01
11,"CC1CCC(C(=O)N2CC[C@H](F)C2)n2c1nn(Cc1ccc(C(F)(F)F)nc1)c2=O (single isomer, unassigned) [Example 222]",8.96
12,"Cc1ccc(Cn2nc3n(c2=O)C(C(=O)N2CCCC2)CC(C(F)(F)F)C3)cc1 (single isomer, unassigned) [Example 225, (5RS,7RS)-2-(4-Methylbenzyl)-5-(pyrrolidin-1-ylcarbonyl)-7-(trifluoromethyl)-5,6,7,8-tetrahydro[1,2,4]triazolo[4,3-a]pyridin-3(2H)-one]",9.64
13,"Cc1ccc(Cn2nc3n(c2=O)C(C(=O)N2CCCC2)CC(C(F)(F)F)C3)cc1 (single isomer, unassigned) [Example 226, (5RS,7RS)-2-(4-Methylbenzyl)-5-(pyrrolidin-1-ylcarbonyl)-7-(trifluoromethyl)-5,6,7,8-tetrahydro[1,2,4]triazolo[4,3-a]pyridin-3(2H)-one]",8.44
14,"O=C(C1CC(C(F)(F)F)Cc2nn(Cc3ccc(Cl)nc3)c(=O)n21)N1CCCC1 (single isomer, unassigned) [Example 227, (5RS,7RS)-2-[(6-Chloropyridin-3-yl)methyl]-5-(pyrrolidin-1-ylcarbonyl)-7-(trifluoromethyl)-5,6,7,8-tetrahydro[1,2,4]triazolo[4,3-a]pyridin-3(2H)-one]",7.62
15,"O=C(C1CC(C(F)(F)F)Cc2nn(Cc3ccc(Cl)nc3)c(=O)n21)N1CCCC1 (single isomer, unassigned) [Example 228, (5RS,7RS)-2-[(6-Chloropyridin-3-yl)methyl]-5-(pyrrolidin-1-ylcarbonyl)-7-(trifluoromethyl)-5,6,7,8-tetrahydro[1,2,4]triazolo[4,3-a]pyridin-3(2H)-one]",8.66
16,"O=C(C1CC(C(F)(F)F)Cc2nn(Cc3ccc(Cl)nc3)c(=O)n21)N1CCCC1 (single isomer, unassigned) [Example 229, (5RS,7RS)-2-[(6-Chloropyridin-3-yl)methyl]-5-(pyrrolidin-1-ylcarbonyl)-7-(trifluoromethyl)-5,6,7,8-tetrahydro[1,2,4]triazolo[4,3-a]pyridin-3(2H)-one]",9.47
